From patent US20190169218A1, “AMPHIPATHIC COMPOUND HAVING NOVEL PENTA-SACCHARIDE HYDROPHILIC GROUP AND USE THEREOF” (Industry-University Cooperation Foundation Hanyang …, priority 2016, published 2019)

Columns and labels:
[1] = critical micelle concentration (CMC) by hydrophobic fluorescent staining with diphenylhexatriene (DPH); assay type: physicochemical
Text: Methods of measuring CMC are not particularly limited, and methods widely known in the art may be used. For example, a fluorescence staining method using diphenylhexatriene (DPH) may be used.
To characterize PSAs of Preparation Examples 1 to 3 synthesized according to the synthetic method of Example 1; PSEs of Preparation Examples 4 to 7 synthesized according to the synthetic method of Example 2; TPS-Es and TPS-ELs of Preparation Examples 8 to 14 synthesized according to the synthetic method of Example 3; and TPS-As of Preparation Examples 15 to 17 synthesized according to the synthetic method of Example 4, the critical micellar concentrations (CMCs) of PSAs, PSEs and TPSs and the hydrodynamic radii (Rh) of formed micelles were measured.
(§1) Specifically, critical micellar concentrations (CMCs) were measured using hydrophobic fluorescent staining and diphenylhexatriene (DPH), and the hydrodynamic radii (Rh) of micelles formed by each compound at a concentration of 1.0 wt % were measured using dynamic light scattering (DLS). The results were compared with results obtained from an existing amphipathic molecule (detergent), DDM, and are shown in Table 1.

[2] = hydrodynamic radius of micelles by dynamic light scattering (DLS); assay type: physicochemical; conditions: compound at 1.0 wt %
Experimental: Methods of measuring the radius of micelles are not particularly limited, and methods widely known in the art may be used. For example, dynamic light scattering (DLS) may be used.
as §1
When measuring, each of PSAs, PSEs and TPSs was used at a concentration of 1.0 wt %.

[3] = biological target: T1, boron transporter (BOR1) BOR1-GFP fusion protein (Arabidopsis thaliana, UniProt Q8VYR7); test: solubilization (extraction) of BOR1-GFP fusion protein from membranes; conditions: amphipathic compound at 1.0 wt %
T1 construct: made in house; host or cells: Saccharomyces cerevisiae FGY217
Experimental: The ability of PSAs and PSEs to solubilize membrane proteins and to stabilize the structures of membrane proteins was evaluated using boron transporter (BOR1), a membrane protein. BOR1 was isolated from Arabidopsis thaliana, and was expressed in the form of a fusion protein having a GFP tag at the C-terminus in Saccharomyces cerevisiae FGY217 cells. This fusion protein has been proven to have boron transporting activity and is therefore involved in both structural and functional analysis of membrane proteins.
The ability of amphipathic compound PSAs and PSEs to solubilize the boron transporter (BOR1) membrane protein was evaluated.
Specifically, membranes containing BOR1-GFP fusion proteins were treated with an existing amphipathic compound (DDM), PSAs (PSA-C9, PSA-C10 and PSA-C11), or PSEs (PSE-C9, PSE-C11 and PSE-C13) at a concentration of 1.0 wt %. The solubilization efficiencies of PSA-C9, PSA-C10 and PSE-C9 were about 80% similar to the solubilization efficiency of DDM. In particular, the BOR1-GFP protein was quantitatively extracted (˜100%) using PSE-C11 having medium length chains, thus confirming that PSE-C11 is particularly useful for solubilization of BOR1-GFP.
(§2) Specifically, Arabidopsis thaliana-derived BOR1 was expressed in the form of a fusion protein having a GFP tag at the C-terminus in Saccharomyces cerevisiae FGY217 cells. The cells were grown in an URA-medium supplemented with 0.1% glucose. 2% galactose was added to the cell culture to induce protein expression and the cells were cultured at 20° C. for 18 hours (see Drew, D. et al., Nat. Protoc. 2008, 3, 784-798.). After culture, the cells were harvested and used to obtain the cell membranes (see Leung, J. et al., Protein Expr. Purif. 2010, 72, 139-146.). Membranes containing BOR1-GFP fusion proteins were diluted to a final total protein concentration of 2.8 mg/mL in PBS (pH7.4) supplemented with 1 wt % DDM, 1 wt % PSAs (PSA-C9, PSA-C10 or PSA-C11) or 1 wt % PSEs (PSE-C9, PSE-C11 or PSE-C13). The diluted samples were incubated at 4° C. for 1 hour with gentle shaking, and insoluble substances were removed by centrifugation at 14,000 g for 1 hour at 4° C. Supernatants containing the dissolved protein samples were incubated for 10 minutes at the specified temperature (35, 40, 45 or 50° C.), and strongly agglutinated proteins were removed by centrifugation at 14,000 g for 10 minutes at 4° C. 200 μL aliquots were taken from the supernatant and injected into a Superose 6 10/300 column equilibrated with 20 mM Tris-HCl (pH 7.5), 150 mM NaCl and 0.03% DDM. Each elution fraction was collected from a retention volume of 6.4 mL (i.e., after 6.4 mL of solution had passed), and added to a well of a clear bottom 96-well plate at a volume of 200 μL. GFP fluorescence generated in each fraction was measured using an excitation wavelength of 470 nm and an emission wavelength of 512 nm.

[4] = biological target: T1, boron transporter (BOR1) BOR1-GFP fusion protein; test: structural (thermal) stability of solubilized BOR1-GFP by fluorescence-based size exclusion chromatography (FSEC); conditions: heated at 40° C. for 10 minutes, 1 wt % compound
Experimental: The ability of PSAs or PSEs to stabilize the structure of boron transporter (BOR1) was measured in an aqueous solution. That is, the BOR1 protein solubilized in each amphipathic compound was denatured by heating, and then structural stability of BOR1 was measured using fluorescence-based size exclusion chromatography (FSEC).
as §2

[5] = biological target: T2, Salmonella typhimurium melibiose permease (MelB) (Salmonella typhimurium, UniProt P30878); test: MelB extraction efficiency and thermal stability by SDS-PAGE and western immunoblotting; conditions: 1.5 wt %, 0° C., 90 minutes (similar results at 45° C.)
T2 construct: made in house; host or cells: DW2 cells (melB and lacZY), Salmonella typhimurium DW2; plasmid pK95AHB/WT MelBst/CH10
T2 sequence (P30878 whole entry): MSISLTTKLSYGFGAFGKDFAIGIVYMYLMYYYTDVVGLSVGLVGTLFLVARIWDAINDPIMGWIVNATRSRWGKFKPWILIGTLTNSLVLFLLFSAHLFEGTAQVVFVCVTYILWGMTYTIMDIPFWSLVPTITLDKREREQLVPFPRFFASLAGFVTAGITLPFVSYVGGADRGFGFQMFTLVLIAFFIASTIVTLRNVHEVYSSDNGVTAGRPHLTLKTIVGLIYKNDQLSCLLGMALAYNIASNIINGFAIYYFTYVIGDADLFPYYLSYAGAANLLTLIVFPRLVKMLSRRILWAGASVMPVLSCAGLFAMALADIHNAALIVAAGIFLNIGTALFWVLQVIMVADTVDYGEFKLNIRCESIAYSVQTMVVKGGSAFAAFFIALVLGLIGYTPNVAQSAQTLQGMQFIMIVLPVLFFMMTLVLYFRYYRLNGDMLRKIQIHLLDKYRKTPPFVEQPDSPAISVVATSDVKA
Experimental: The ability of PSAs or PSEs to extract (solubilize) MelBst (Salmonella typhimurium melibiose permease) proteins and stabilize the structures thereof was measured. MelB proteins were extracted using PSAs, PSEs or DDM, and the amount of the extracted proteins and structural stability thereof were quantitatively analyzed by SDS-PAGE and western immunoblotting. The protein extraction efficiency and thermally stabilizing ability of the amphipathic compounds were simultaneously evaluated by extracting MelB proteins at four temperatures (0, 45, 55 or 65° C.) for 90 minutes using the amphipathic compounds at a concentration of 1.5 wt %.
Specifically, according to the method described in the journal article (P. S. Chae, et al., Chemistry. 2013, 19, 15645-15651.) published by the present inventors, proteins (MelBst) were produced using a plasmid pK95AHB/WT MelBst/CH10 containing a gene construct encoding wild-type MelB having 10×His tags at the C-terminus and Salmonella typhimurium DW2 cells (melB and lacZY). According to the method described in the journal article (A. S. Ethayathulla et al., Nat. Commun. 2014, 5, 3009), cells were cultured and the cell membranes were obtained from the cultured cells. Protein analysis was performed using a Micro BCA kit (Thermo Scientific, Rockford, Ill.). To measure solubilization/stability, membrane samples (the final concentration of membrane proteins was 10 mg/mL) containing MelBst were mixed with a solubilization buffer solution (20 mM sodium phosphate, pH 7.5, 200 mM NaCl, 10% glycerol and 20 mM melibiose) containing DDM, PSAs (PSA-C11) or PSEs (PSE-C9, PSE-C11, PSE-C13) at a concentration of 1.5% (w/v). Extracts were incubated at four different temperatures (0, 45, 55 and 65° C.) for 90 minutes. Fractions were removed by ultracentrifugation at 355,590 g for 45 minutes using a Beckman Optima™ MAX ultracentrifuge equipped with a No. 4 TLA-100 rotor. 20 μg of proteins was separated using a 15% SDS-PAGE gel. Next, immunoblotting was performed using Penta-His-HRP antibodies (Qiagen, Germantown, Md.). After performing SDS-PAGE and immunoblotting, the amount of solubilized MelB was quantitated and expressed as a percentage of the amount of MelB measured in the control group.

Row | SMILES | CMC [1] | CMC (wt %) [1] | Rh (nm), hydrodynamic radius of micelles [2] | solubilization efficiency of BOR1-GFP [3] | structural stability of solubilized BOR1-GFP after heating (RFU, FSEC) [4] | MelB extraction efficiency [5]
1 | CCCCCCCCCOCC(COCCCCCCCCC)O[C@@H]1OC(CO[C@@H]2OC(CO)[C@@H](O)C(O)C2O)[C@@H](O[C@@H]2OC(CO)[C@@H](O)C(O)C2O)C(O[C@@H]2OC(CO)[C@@H](O)C(O)C2O)C1O[C@@H]1OC(CO)[C@@H](O)C(O)C1O (stereo partly drawn) [PSE-C9] | ~0.026 mM | ~0.0030 wt % | 3.19 ± 0.04 nm | about 80% | greatly improved compared to DDM | extracted at an efficiency similar to the efficiency observed in the case of DDM
2 | CCCCCCCCCCC(CCCCCCCCCC)CO[C@@H]1OC(CO[C@@H]2OC(CO)[C@@H](O)C(O)C2O)[C@@H](O[C@@H]2OC(CO)[C@@H](O)C(O)C2O)C(O[C@@H]2OC(CO)[C@@H](O)C(O)C2O)C1O[C@@H]1OC(CO)[C@@H](O)C(O)C1O (stereo partly drawn) [PSA-C10] | ~0.009 mM | ~0.0010 wt % | 3.10 ± 0.05 nm | about 80% | remarkably improved as compared to DDM and PSA-C9 | 
3 | CCCCCCCCCC(CCCCCCCCC)CO[C@@H]1OC(CO[C@@H]2OC(CO)[C@@H](O)C(O)C2O)[C@@H](O[C@@H]2OC(CO)[C@@H](O)C(O)C2O)C(O[C@@H]2OC(CO)[C@@H](O)C(O)C2O)C1O[C@@H]1OC(CO)[C@@H](O)C(O)C1O (stereo partly drawn) [PSA-C9] | ~0.014 mM | ~0.0016 wt % | 2.94 ± 0.05 nm | about 80% |  | 
